Drawing on the supplement of paper PMC12463676, “Small-molecule dissolution of stress granules by redox modulation benefits ALS models” (Nature Chemical Biology, 2025), this text covers thermal stability z-score for 42 targets.

Compound in one assay: NC(=O)CCCCC1CCSS1 [lipoamide]
As to the kind of experiment: thermal stability z-score vs DMSO; higher = more thermally stabilized by treatment. To be noted: HeLa, lipoamide concentration 100 µM. How it is done:
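Cellular thermal proteome profiling in HeLa cells. Cells were treated with 100 µM lipoamide for 1 h, with or without 1 mM arsenate for a further 1 h, then heated to ten temperatures (37-66.3 °C), and soluble protein was quantified by TMT mass spectrometry relative to 0.1% DMSO controls. The thermal stability score (sum of log2 fold changes minus the abundance score) was transformed to a z-score; mean of n = 3 experiments.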

Compound in the next assay: O=[As]([O-])(O)O.[K+] [potassium arsenate]
The description is as above. The following applies: HeLa; arsenate concentration 1 mM. As to the method: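 Cellular thermal proteome profiling in HeLa cells treated with 1 mM arsenate for 1 h (DMSO pretreatment), heated to ten temperatures (37-66.3 °C). Soluble protein was quantified by TMT mass spectrometry relative to DMSO controls; the thermal stability score was transformed to a z-score; mean of n = 3 experiments.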

Where [1] appears, read: arsenate co-treatment: 1 mM arsenate 1 h.
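Further: each temperature applied for 3 min, abundance score taken as mean log2 fold change at the two lowest temperatures, z-score obtained by mean subtraction and division by SD.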

Chain of UniProt P19793 (P19793 whole entry): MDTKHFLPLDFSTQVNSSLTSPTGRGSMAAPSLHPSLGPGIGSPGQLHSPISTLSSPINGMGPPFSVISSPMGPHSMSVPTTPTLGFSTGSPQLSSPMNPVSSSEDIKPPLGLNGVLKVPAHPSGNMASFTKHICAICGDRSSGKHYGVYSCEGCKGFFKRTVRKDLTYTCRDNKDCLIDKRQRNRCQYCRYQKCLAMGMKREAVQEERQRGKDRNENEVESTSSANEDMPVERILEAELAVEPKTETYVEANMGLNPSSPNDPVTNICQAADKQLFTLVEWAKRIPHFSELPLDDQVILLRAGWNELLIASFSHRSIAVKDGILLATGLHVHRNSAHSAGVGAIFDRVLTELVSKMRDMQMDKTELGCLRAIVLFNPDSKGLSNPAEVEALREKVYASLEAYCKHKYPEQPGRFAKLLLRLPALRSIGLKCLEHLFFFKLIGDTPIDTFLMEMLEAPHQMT
Chain of UniProt O94874 (O94874 whole entry): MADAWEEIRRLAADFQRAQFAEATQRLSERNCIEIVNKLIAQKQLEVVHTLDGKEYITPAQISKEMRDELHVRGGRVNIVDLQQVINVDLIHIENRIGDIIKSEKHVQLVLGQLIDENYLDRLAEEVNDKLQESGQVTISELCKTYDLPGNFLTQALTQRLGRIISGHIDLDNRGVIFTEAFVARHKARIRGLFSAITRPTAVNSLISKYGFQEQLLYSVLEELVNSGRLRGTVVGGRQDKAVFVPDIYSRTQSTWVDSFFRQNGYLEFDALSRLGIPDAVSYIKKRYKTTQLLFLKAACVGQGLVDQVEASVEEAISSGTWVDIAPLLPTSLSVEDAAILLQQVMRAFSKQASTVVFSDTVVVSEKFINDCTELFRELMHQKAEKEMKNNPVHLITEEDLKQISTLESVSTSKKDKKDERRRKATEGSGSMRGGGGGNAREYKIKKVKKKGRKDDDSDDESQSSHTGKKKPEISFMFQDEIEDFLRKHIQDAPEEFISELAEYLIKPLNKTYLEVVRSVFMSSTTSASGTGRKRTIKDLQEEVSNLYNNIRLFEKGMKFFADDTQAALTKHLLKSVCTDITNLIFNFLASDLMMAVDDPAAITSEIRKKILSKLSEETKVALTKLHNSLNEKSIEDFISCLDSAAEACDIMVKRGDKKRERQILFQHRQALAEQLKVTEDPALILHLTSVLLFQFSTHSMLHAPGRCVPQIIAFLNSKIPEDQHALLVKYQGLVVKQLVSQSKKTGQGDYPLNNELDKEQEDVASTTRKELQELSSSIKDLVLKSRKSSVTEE
Chain of UniProt O95674 (O95674 whole entry): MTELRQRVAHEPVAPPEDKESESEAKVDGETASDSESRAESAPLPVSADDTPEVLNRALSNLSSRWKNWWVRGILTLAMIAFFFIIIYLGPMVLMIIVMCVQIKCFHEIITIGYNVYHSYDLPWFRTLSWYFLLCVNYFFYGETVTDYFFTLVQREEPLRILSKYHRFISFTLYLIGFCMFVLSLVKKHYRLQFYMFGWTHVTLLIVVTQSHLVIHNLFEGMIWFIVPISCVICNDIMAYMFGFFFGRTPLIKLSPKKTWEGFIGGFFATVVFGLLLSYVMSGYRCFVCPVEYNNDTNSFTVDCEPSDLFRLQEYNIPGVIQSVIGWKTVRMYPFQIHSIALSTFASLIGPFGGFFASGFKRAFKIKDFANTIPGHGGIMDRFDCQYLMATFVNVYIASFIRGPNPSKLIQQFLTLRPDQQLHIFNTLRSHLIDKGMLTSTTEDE
Chain of UniProt Q92643 (Q92643 whole entry): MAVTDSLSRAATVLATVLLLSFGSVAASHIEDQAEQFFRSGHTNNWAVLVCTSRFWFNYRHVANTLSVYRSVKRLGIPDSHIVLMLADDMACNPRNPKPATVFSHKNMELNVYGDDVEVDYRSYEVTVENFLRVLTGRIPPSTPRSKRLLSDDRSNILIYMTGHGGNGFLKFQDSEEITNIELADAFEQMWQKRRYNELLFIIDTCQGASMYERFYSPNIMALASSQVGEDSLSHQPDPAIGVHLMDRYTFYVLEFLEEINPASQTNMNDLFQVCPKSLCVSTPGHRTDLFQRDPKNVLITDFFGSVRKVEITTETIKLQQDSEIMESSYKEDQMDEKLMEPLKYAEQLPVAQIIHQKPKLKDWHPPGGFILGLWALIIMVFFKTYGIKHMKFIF
Chain of UniProt Q13416 (Q13416 whole entry): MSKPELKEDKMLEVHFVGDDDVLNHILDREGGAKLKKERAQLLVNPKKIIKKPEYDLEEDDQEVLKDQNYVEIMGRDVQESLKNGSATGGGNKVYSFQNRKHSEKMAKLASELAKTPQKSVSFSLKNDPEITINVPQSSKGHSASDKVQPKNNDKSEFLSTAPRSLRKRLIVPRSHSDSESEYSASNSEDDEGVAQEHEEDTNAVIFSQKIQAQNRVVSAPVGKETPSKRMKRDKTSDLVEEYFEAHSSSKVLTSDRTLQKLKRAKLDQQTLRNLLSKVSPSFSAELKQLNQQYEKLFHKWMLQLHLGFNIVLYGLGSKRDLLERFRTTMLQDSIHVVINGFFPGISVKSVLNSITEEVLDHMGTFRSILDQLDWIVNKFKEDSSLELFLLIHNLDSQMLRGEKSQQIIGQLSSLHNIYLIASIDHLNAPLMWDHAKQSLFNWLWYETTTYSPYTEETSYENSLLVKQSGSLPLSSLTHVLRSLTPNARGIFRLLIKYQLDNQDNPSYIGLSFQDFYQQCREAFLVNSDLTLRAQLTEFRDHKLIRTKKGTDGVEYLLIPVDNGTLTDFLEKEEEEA
Chain of UniProt Q7Z5U6 (Q7Z5U6 whole entry): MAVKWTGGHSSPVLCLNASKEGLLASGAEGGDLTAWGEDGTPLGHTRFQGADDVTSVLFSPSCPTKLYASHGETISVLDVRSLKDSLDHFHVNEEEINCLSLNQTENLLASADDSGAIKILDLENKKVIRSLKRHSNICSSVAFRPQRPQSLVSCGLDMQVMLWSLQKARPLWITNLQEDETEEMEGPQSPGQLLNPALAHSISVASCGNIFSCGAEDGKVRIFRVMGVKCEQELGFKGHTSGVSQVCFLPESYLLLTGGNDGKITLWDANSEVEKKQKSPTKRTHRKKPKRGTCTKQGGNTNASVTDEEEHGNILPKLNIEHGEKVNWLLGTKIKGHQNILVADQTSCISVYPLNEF
Chain of UniProt Q9Y295 (Q9Y295 whole entry): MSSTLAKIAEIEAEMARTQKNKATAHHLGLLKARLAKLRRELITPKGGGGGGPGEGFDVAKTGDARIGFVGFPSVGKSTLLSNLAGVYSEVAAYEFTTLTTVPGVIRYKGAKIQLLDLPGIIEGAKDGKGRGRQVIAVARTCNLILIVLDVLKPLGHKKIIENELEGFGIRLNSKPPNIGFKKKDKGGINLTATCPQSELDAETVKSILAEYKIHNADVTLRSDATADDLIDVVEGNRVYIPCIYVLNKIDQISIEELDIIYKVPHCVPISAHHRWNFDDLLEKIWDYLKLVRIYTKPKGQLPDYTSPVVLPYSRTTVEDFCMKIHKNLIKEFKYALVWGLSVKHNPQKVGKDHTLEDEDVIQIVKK
Chain of UniProt Q96EV2 (Q96EV2 whole entry): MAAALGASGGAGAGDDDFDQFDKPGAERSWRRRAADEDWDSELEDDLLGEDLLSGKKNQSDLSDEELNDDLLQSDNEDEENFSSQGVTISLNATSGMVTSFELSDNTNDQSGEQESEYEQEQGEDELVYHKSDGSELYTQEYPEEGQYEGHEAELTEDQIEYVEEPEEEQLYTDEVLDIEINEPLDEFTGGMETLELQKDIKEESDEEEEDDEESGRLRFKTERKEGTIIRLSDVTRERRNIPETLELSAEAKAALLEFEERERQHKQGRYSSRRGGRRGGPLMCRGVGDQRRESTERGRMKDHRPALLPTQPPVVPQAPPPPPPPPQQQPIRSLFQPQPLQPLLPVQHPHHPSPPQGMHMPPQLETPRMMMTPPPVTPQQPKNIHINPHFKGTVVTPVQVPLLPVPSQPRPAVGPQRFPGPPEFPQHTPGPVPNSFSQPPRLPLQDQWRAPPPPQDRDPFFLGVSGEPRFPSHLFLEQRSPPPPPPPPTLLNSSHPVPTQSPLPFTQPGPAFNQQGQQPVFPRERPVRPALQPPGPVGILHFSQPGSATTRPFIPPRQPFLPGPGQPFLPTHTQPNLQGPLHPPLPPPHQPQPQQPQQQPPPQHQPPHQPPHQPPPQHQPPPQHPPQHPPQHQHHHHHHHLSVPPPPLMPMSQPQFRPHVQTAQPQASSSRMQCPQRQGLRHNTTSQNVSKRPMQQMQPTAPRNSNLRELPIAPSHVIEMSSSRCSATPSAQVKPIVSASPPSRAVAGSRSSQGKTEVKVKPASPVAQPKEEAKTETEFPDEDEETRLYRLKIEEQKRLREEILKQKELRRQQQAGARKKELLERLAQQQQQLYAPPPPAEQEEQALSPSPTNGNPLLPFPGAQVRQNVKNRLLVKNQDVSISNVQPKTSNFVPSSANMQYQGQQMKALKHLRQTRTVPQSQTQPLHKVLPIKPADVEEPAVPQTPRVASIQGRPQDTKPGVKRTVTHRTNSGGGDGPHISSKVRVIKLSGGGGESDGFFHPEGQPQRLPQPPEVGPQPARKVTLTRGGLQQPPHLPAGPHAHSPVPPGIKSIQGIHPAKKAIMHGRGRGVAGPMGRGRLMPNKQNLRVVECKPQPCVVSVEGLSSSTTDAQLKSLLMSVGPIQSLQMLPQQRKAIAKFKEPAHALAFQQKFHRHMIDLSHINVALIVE
Chain of UniProt P06493 (P06493 whole entry, looked up): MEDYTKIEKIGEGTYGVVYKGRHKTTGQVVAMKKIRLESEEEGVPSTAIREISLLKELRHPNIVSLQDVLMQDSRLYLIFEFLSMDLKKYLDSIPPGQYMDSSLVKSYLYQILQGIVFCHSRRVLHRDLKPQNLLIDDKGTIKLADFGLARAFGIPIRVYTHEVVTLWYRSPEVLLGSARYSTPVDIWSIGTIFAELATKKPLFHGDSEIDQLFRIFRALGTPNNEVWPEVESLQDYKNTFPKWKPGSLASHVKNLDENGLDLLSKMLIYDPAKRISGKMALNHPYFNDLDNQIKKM
Chain of UniProt O14907 (O14907 whole entry): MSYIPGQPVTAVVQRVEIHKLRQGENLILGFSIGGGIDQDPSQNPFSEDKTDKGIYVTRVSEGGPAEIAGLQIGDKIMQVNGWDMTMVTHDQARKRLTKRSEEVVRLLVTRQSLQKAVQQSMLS

For CDC42BPA (UniProt Q5VT25), the values for the thermal stability z-score with lipoamide (setting [1]), in the assay with lipoamide (arsenate co-treatment: none) and in the assay with potassium arsenate were 0.504, 0.561 and 0.379, respectively.

In the case of PITRM1 (UniProt Q5JRX3), the thermal stability z-score was 0.579 with lipoamide (setting [1]), 0.327 with lipoamide (arsenate co-treatment: none) and 2.58 with potassium arsenate.

NAA10 (UniProt P41227): the thermal stability z-score amounted to 1.16 with lipoamide (setting [1]), 0.982 with lipoamide (arsenate co-treatment: none) and 0.405 with potassium arsenate.

As to NO66 (UniProt Q9H6W3), the figures for the thermal stability z-score with lipoamide (setting [1]), with lipoamide (arsenate co-treatment: none) and in the assay with potassium arsenate were 0.635, 0.483 and 0.842, respectively.

For the target SRSF3 (UniProt P84103), the thermal stability z-score was 1.69 with lipoamide (setting [1]), 0.987 with lipoamide (arsenate co-treatment: none) and -0.485 with potassium arsenate.

Regarding KIF1B (UniProt O60333), the thermal stability z-score with lipoamide (setting [1]) was -0.488; with lipoamide (arsenate co-treatment: none), -0.322; in the assay with potassium arsenate, -0.321.

Regarding TBC1D15 (UniProt Q8TC07), the thermal stability z-score in the assay with lipoamide (setting [1]) was -0.559; with lipoamide (arsenate co-treatment: none), -0.646; with potassium arsenate, -0.276.

For WDR53 (UniProt Q7Z5U6), the figures for the thermal stability z-score with lipoamide (setting [1]), with lipoamide (arsenate co-treatment: none) and with potassium arsenate were 0.164, 0.989 and 1.07, respectively.

As to DHX32 (UniProt Q7L7V1), the thermal stability z-score with lipoamide (setting [1]) was -1.73; with lipoamide (arsenate co-treatment: none) it was -1.67; with potassium arsenate, 0.629.

Turning to CASC3 (UniProt O15234), the values for the thermal stability z-score with lipoamide (setting [1]), with lipoamide (arsenate co-treatment: none) and with potassium arsenate were 0.25, 0.544 and -1.15, respectively.

As to CCDC86 (UniProt Q9H6F5), the thermal stability z-score was -0.342 in the assay with lipoamide (setting [1]), -0.895 with lipoamide (arsenate co-treatment: none) and -2.01 with potassium arsenate.

Take RXRA (UniProt P19793): the thermal stability z-score with lipoamide (setting [1]) was 0.08; with lipoamide (arsenate co-treatment: none), 0.208; in the assay with potassium arsenate, -0.255.

In the case of CDK1 (UniProt P06493), the results for the thermal stability z-score with lipoamide (setting [1]), with lipoamide (arsenate co-treatment: none) and with potassium arsenate were 0.163, -0.0348 and 0.246, respectively.

Regarding APOBEC3C (UniProt Q9NRW3), the thermal stability z-score was -0.418 in the assay with lipoamide (setting [1]), -0.453 in the assay with lipoamide (arsenate co-treatment: none) and -0.53 with potassium arsenate.

As to DRG1 (UniProt Q9Y295), the thermal stability z-score is -0.143 with lipoamide (setting [1]), -0.213 with lipoamide (arsenate co-treatment: none) and 0.121 in the assay with potassium arsenate.

With GRN (UniProt P28799), the thermal stability z-score with lipoamide (setting [1]) is 0.151; with lipoamide (arsenate co-treatment: none), -0.477; in the assay with potassium arsenate it was 0.505.

Consider PEX1 (UniProt O43933), for which the thermal stability z-score with lipoamide (setting [1]) is -0.254; with lipoamide (arsenate co-treatment: none), -0.723; with potassium arsenate, -0.382.

With CDKN2AIP (UniProt Q9NXV6), the thermal stability z-score was 0.446 with lipoamide (setting [1]), 0.454 in the assay with lipoamide (arsenate co-treatment: none) and -0.347 with potassium arsenate.

Consider NUP88 (UniProt Q99567), for which the values for the thermal stability z-score with lipoamide (setting [1]), with lipoamide (arsenate co-treatment: none) and with potassium arsenate were -0.607, -0.513 and 0.549, respectively.

With DDAH1 (UniProt O94760), the thermal stability z-score in the assay with lipoamide (setting [1]) was found to be 0.568; with lipoamide (arsenate co-treatment: none), 0.134; in the assay with potassium arsenate it was 0.259.

In the case of C7ORF50 (UniProt Q9BRJ6), the thermal stability z-score in the assay with lipoamide (setting [1]) is -0.995; in the assay with lipoamide (arsenate co-treatment: none), -0.353; in the assay with potassium arsenate, -0.593.

MB21D1 (UniProt Q8N884): the results for the thermal stability z-score with lipoamide (setting [1]), in the assay with lipoamide (arsenate co-treatment: none) and in the assay with potassium arsenate were 0.409, 0.258 and 0.109, respectively.

As to P4HB (UniProt P07237), the thermal stability z-score with lipoamide (setting [1]) is -0.224; in the assay with lipoamide (arsenate co-treatment: none), 0.393; in the assay with potassium arsenate it was 0.47.

For the target PIGK (UniProt Q92643), the thermal stability z-score is -1.32 with lipoamide (setting [1]), -1.34 with lipoamide (arsenate co-treatment: none) and -0.123 with potassium arsenate.

Regarding MRPS7 (UniProt Q9Y2R9), the thermal stability z-score was -1.12 in the assay with lipoamide (setting [1]), -0.496 with lipoamide (arsenate co-treatment: none) and 0.102 with potassium arsenate.

UFL1 (UniProt O94874): the figures for the thermal stability z-score in the assay with lipoamide (setting [1]), in the assay with lipoamide (arsenate co-treatment: none) and in the assay with potassium arsenate were -0.791, -0.41 and 0.145, respectively.

In the case of ARPC1A (UniProt Q92747), the thermal stability z-score is -0.106 in the assay with lipoamide (setting [1]), 0.0846 in the assay with lipoamide (arsenate co-treatment: none) and -0.466 with potassium arsenate.

With UBAC1 (UniProt Q9BSL1), the thermal stability z-score in the assay with lipoamide (setting [1]) was 0.447; with lipoamide (arsenate co-treatment: none), -0.0576; in the assay with potassium arsenate it was 0.576.

With PABPC1 (UniProt P11940), the thermal stability z-score is 0.469 with lipoamide (setting [1]), 0.549 in the assay with lipoamide (arsenate co-treatment: none) and -0.758 with potassium arsenate.

With COMTD1 (UniProt Q86VU5), the thermal stability z-score in the assay with lipoamide (setting [1]) is -0.328; with lipoamide (arsenate co-treatment: none), -1.94; with potassium arsenate it was -0.237.

As to TGFBRAP1 (UniProt Q8WUH2), the results for the thermal stability z-score with lipoamide (setting [1]), with lipoamide (arsenate co-treatment: none) and with potassium arsenate were 0.0561, -0.0483 and -0.0443, respectively.

For STRAP (UniProt Q9Y3F4), the thermal stability z-score with lipoamide (setting [1]) was 0.312; in the assay with lipoamide (arsenate co-treatment: none) it was 0.0419; with potassium arsenate it was -0.875.

On to HPRT1 (UniProt P00492), for which the thermal stability z-score turned out to be 0.468 with lipoamide (setting [1]), 0.716 in the assay with lipoamide (arsenate co-treatment: none) and 0.0837 with potassium arsenate.

In the case of SRP19 (UniProt P09132), the thermal stability z-score in the assay with lipoamide (setting [1]) is -0.296; with lipoamide (arsenate co-treatment: none), -0.485; in the assay with potassium arsenate, 0.033.

RBM33 (UniProt Q96EV2): the thermal stability z-score with lipoamide (setting [1]) is 0.0301; with lipoamide (arsenate co-treatment: none), -0.534; with potassium arsenate, -0.175.

In the case of TAX1BP3 (UniProt O14907), the thermal stability z-score with lipoamide (setting [1]) is 0.0819; with lipoamide (arsenate co-treatment: none), -0.232; in the assay with potassium arsenate it was 0.424.

Consider LIG4 (UniProt P49917), for which the thermal stability z-score in the assay with lipoamide (setting [1]) was -0.146; with lipoamide (arsenate co-treatment: none), 0.0757; with potassium arsenate, -0.107.

On to WWC1 (UniProt Q8IX03), for which the thermal stability z-score in the assay with lipoamide (setting [1]) is -0.0147; with lipoamide (arsenate co-treatment: none), -0.0692; in the assay with potassium arsenate, -0.0726.

Consider SYAP1 (UniProt Q96A49), for which the thermal stability z-score with lipoamide (setting [1]) is 0.0475; in the assay with lipoamide (arsenate co-treatment: none) it was -0.0361; in the assay with potassium arsenate, 0.679.

Turning to CDS2 (UniProt O95674), the results for the thermal stability z-score in the assay with lipoamide (setting [1]), with lipoamide (arsenate co-treatment: none) and with potassium arsenate were -0.807, -0.975 and -0.43, respectively.

XPO6 (UniProt Q96QU8): the thermal stability z-score was 0.0641 with lipoamide (setting [1]), 0.00854 with lipoamide (arsenate co-treatment: none) and -0.339 with potassium arsenate.

With ORC2 (UniProt Q13416), the thermal stability z-score stood at 0.0753 with lipoamide (setting [1]), 0.0589 with lipoamide (arsenate co-treatment: none) and 0.0824 with potassium arsenate.
